This passage reports viability, Activity and inhibition results from ChEMBL document CHEMBL3804798, “Design, synthesis and anti-inflammatory effects of novel 9-O-substituted-berberine derivatives” (Medchemcomm, 2016).

Activity calls are given as the source filed them. The calls are words filed in the database; no cut-off is given here.

Broadly, the inhibition is the drop in the measured response relative to a control, in per cent.

Series [1] in a line: Cytotoxicity against mouse RAW264.7 cells assessed as cell viability at 5 uM after 48 hrs by MTT assay relative to control. Type of series: cell-based. The settings on record: read-out: Activity. In general terms: Tetrazolium dyes change colour on reduction, which living cells bring about.
A short description of series [2]: Cytotoxicity against mouse RAW264.7 cells assessed as cell viability at 10 uM after 48 hrs by MTT assay relative to control. Format: cell-based. The settings on record: read-out: Activity.
The species named for series [3] is Danio rerio. The experiment in a line: Antiinflammatory activity in cut-tail neutrophil/macrophage double transgenic zebra fish larvae assessed as cut-tail-induced reduction in neutrophil level in wound site at 10 uM after 3 to 9 hrs by fluorescence microscopic analysis relative to control. Type of series: functional, organism-based.
Series [4] is filed under the species Danio rerio. The experiment in a line: Antiinflammatory activity in cut-tail neutrophil/macrophage double transgenic zebra fish larvae assessed as cut-tail-induced migration of primitive macrophages at 10 uM after 3 to 6 hrs by fluorescence microscopic analysis relative to control. Type of series: functional, organism-based.
Series [5] relates to RAW264.7. The experiment in a line: Antiinflammatory activity against mouse RAW264.7 cells assessed as inhibition of LPS-induced NO release at 5 uM after 24 hrs by Griess assay relative to control. To be noted: RAW264.7, 24 h. Type of series: functional. (Nitrite, measured by Griess reagent, commonly stands in for NO production.)
The species named for series [6] is Danio rerio. Briefly: Antiinflammatory activity in cut-tail neutrophil/macrophage double transgenic zebra fish larvae assessed as cut-tail-induced reduction in migration of primitive macrophages at 10 uM after 9 hrs by fluorescence microscopic analysis relative to control. Type of series: functional, organism-based.
Series [7] deals with RAW264.7. The experiment in a line: Antiinflammatory activity against mouse RAW264.7 cells assessed as inhibition of LPS-induced NO release after 24 hrs by Griess assay relative to control. Type of series: functional, cell-based.
Series [8] relates to RAW264.7. Briefly: Inhibition of LPS stimulated iNOS expression in mouse RAW264.7 cells preincubated for 2 hrs followed by LPS stimulation for 6 hrs by Western blot analysis. Format: functional, cell-based.
Series [9] relates to RAW264.7. Briefly: Antiinflammatory activity against mouse LPS-induced RAW264.7 cells assessed as inhibition of TNFalpha production at 5 uM after 24 hrs by cytokine enzyme-linked immunosorbent assay relative to control. Type of series: functional. The settings on record: RAW264.7, 24 h.
For series [10], the system named is RAW264.7. The experiment in a line: Antiinflammatory activity against mouse LPS-induced RAW264.7 cells assessed as inhibition of IL-6 production at 5 uM after 24 hrs by cytokine enzyme-linked immunosorbent assay relative to control. Type of series: functional, cell-based.
Series [11] concerns the target T1, NF-kappa-B inhibitor alpha (Mus musculus) (UniProt Q9Z1E3).
T1 sequence (whole entry): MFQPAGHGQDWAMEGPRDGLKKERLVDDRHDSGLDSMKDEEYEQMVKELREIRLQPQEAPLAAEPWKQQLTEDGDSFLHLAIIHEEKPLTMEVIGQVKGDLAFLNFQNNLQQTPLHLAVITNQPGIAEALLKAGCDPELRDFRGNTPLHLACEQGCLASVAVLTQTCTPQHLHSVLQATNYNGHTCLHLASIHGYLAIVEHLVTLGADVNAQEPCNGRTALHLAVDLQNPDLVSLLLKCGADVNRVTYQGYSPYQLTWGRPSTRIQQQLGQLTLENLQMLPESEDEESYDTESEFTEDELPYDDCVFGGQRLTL
The experiment in a line: Inhibition of LPS stimulated IkappaBaplha phosphorylation in mouse RAW264.7 cells preincubated for 2 hrs followed by LPS stimulation for 6 hrs by Western blot analysis. Type of series: cell-based.

On to `COc1ccc2cc3[n+](cc2c1OC(=O)N1CCN(c2ncccn2)CC1)CCc1cc2c(cc1-3)OCO2`, for which the viability at 48 h, 5 µM in series [1] came out at 102%. The viability at 48 h, 10 µM in [2] worked out at 97.6%.
Consider `COc1ccc2cc3[n+](cc2c1OC(=O)N(C)C1CCCCC1)CCc1cc2c(cc1-3)OCO2`, for which, in series [1], the viability at 48 h, 5 µM came out at 99.3%. The result in the series listed under Danio rerio [3] and in the series listed under Danio rerio [6] was Active. Also, the result in the series filed under Danio rerio [4] was inactive. The viability at 48 h, 10 µM in series [2] came out at 83.2%. In addition, the figures for the inhibition at 5 µM with RAW264.7 [5] and in the series on RAW264.7 [9] were 70.3% and 70%, respectively. Further, the inhibition entry (in the series with RAW264.7 [7]; in the series with RAW264.7 [8]; in series [11]) was “Dose-dependent effect” each time. Besides, in the series with RAW264.7 [10], the inhibition entry is “Active”.
In the case of `COc1ccc2cc3[n+](cc2c1OC(=O)N1CCSCC1)CCc1cc2c(cc1-3)OCO2`, the viability at 48 h, 5 µM in series [1] worked out at 96%. Moreover, the viability at 48 h, 10 µM in series [2] was 109%.
The like results for `COc1ccc2cc3[n+](cc2c1OC(=O)N1CCC(N2CCN(C)CC2)CC1)CCc1cc2c(cc1-3)OCO2` were, in that order, 101% and 104%.
In the case of `COc1ccc2cc3[n+](cc2c1OCCCN1CCN(c2ccncc2)CC1)CCc1cc2c(cc1-3)OCO2`, in series [1], the viability at 48 h, 5 µM is 103%. In addition, the outcome in the series listed under Danio rerio [3] and in the series listed under Danio rerio [6] was Active. Further, the outcome in the series filed under Danio rerio [4] was inactive. The viability at 48 h, 10 µM in series [2] came out at 100%. Moreover, the inhibition at 5 µM was 30.2% with RAW264.7 [5] and 90% in the series on RAW264.7 [9]. The inhibition entry (in the series with RAW264.7 [7]; in the series with RAW264.7 [8]; in [11]) was “Dose-dependent effect” in each case. Further, in the series on RAW264.7 [10], the inhibition result was “Active”.
`CCOC(=O)N1CCN(C(=O)Oc2c(OC)ccc3cc4[n+](cc23)CCc2cc3c(cc2-4)OCO3)CC1`: in series [1], the viability at 48 h, 5 µM worked out at 97.9%. Moreover, the viability at 48 h, 10 µM in [2] turned out to be 99.6%. In addition, the inhibition at 5 µM in the series on RAW264.7 [5] was found to be 9.7%.
Consider `COc1ccc2cc3[n+](cc2c1OC(=O)N1CCN(C2CCN(C)CC2)CC1)CCc1cc2c(cc1-3)OCO2`, for which the viability at 48 h, 5 µM in [1] is 107%. Besides, the viability at 48 h, 10 µM in series [2] was found to be 102%.
For `COc1ccc2cc3[n+](cc2c1OC(=O)N1CCOCC1)CCc1cc2c(cc1-3)OCO2`, in series [1], the viability at 48 h, 5 µM turned out to be 105%. The viability at 48 h, 10 µM in series [2] was 96%.
`COc1ccc2cc3[n+](cc2c1OC(=O)N1CCC(N2CCCCC2)CC1)CCc1cc2c(cc1-3)OCO2`: the viability at 48 h, 5 µM in series [1] was 98.1%. Further, the viability at 48 h, 10 µM in series [2] is 100%.
In the case of `COc1ccc2cc3[n+](cc2c1OC(=O)N1CCN(c2ccccn2)CC1)CCc1cc2c(cc1-3)OCO2`, the viability at 48 h, 5 µM in series [1] was determined as 103%. The viability at 48 h, 10 µM in series [2] came to 109%. Besides, the inhibition at 5 µM in the series with RAW264.7 [5] came out at 12.9%.
As to `CCCN(CCC)C(=O)Oc1c(OC)ccc2cc3[n+](cc12)CCc1cc2c(cc1-3)OCO2`, the viability at 48 h, 5 µM in series [1] was determined as 101%. Also, in [2], the viability at 48 h, 10 µM is 93.9%.
As to `C=CCN(CC=C)C(=O)Oc1c(OC)ccc2cc3[n+](cc12)CCc1cc2c(cc1-3)OCO2`, the viability at 48 h, 5 µM in series [1] was 100%. Moreover, in [2], the viability at 48 h, 10 µM stood at 92.2%.
Consider `COc1ccc2cc3[n+](cc2c1OC)CCc1cc2c(cc1-3)OCO2` [BERBERINE CHLORIDE], for which the viability at 48 h, 5 µM in series [1] turned out to be 99.4%. Besides, the viability at 48 h, 10 µM in series [2] was determined as 97.2%. Besides, in the series on RAW264.7 [5], the inhibition at 5 µM came out at 21.1%.
`COc1ccc2c(c1)c(CC(=O)O)c(C)n2C(=O)c1ccc(Cl)cc1` [INDOMETHACIN]: the viability at 48 h, 5 µM in series [1] was determined as 99.8%. Moreover, the viability at 48 h, 10 µM in [2] was 99.6%. Also, the inhibition at 5 µM with RAW264.7 [5] amounted to 20.8%.
Consider `CCOC(=O)C1CCN(CCCOc2c(OC)ccc3cc4[n+](cc23)CCc2cc3c(cc2-4)OCO3)CC1`, for which, in [1], the viability at 48 h, 5 µM turned out to be 98.5%. In addition, in series [2], the viability at 48 h, 10 µM worked out at 99.5%.
Regarding `COc1ccc2cc3[n+](cc2c1OC(=O)N1CCC(Cc2ccccc2)CC1)CCc1cc2c(cc1-3)OCO2`, in series [1], the viability at 48 h, 5 µM was found to be 97.6%. Also, in series [2], the viability at 48 h, 10 µM amounted to 87.9%.
With `CCOC(=O)N1CCN(CCCOc2c(OC)ccc3cc4[n+](cc23)CCc2cc3c(cc2-4)OCO3)CC1`, in series [1], the viability at 48 h, 5 µM worked out at 103%. Moreover, the viability at 48 h, 10 µM in series [2] is 99.1%.
